Assay [1] deals with T1, MTHFD2 recombinant human enzyme (Homo sapiens, UniProt P13995).
T1 sequence (P13995 36-350): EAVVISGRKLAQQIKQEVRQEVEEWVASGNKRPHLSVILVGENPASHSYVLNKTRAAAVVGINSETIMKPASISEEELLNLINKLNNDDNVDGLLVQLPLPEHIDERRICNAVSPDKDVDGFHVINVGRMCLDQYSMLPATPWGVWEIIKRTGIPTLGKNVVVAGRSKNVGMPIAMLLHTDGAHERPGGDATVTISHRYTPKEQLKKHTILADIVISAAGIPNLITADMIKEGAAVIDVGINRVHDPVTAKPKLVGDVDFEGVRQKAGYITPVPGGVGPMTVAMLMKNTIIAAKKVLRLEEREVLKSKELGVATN
In words: MTHFD2 inhibition assay (NAD(P)H-Glo luminescence). The note with it: for MTHFD1/MTHFD2 IC50 ratio: selectivity of MTHFD2 inhibition over MTHFD1, band.

For assay [2], the system named is human CD4+ T cells. In words: Human CD4+ T-cell proliferation assay (CFSE, CD3/28 beads). The note with it: read-out: Proliferation IC50.
Procedure: Cells were incubated at room temperature for 8 minutes in a rotator in the dark. 13 mL cRPMI was added to each tube and cells were centrifuged at 500×g for 4 minutes at room temperature before pellets were resuspended in 10 mL cRPMI. Cells were counted using the Auto2000 Cellometer and AO/PI viability stain and concentration adjusted to 0.6×10^6 cells/mL in cRPMI. […] Control wells were included for flow cytometry and edge wells were filled with 200 μL 1×dPBS. Cells were incubated at 37° C., 5% CO2 for 2 days before compound treatment. […] Cells were incubated at 37° C., 5% CO2 for a further 2 days prior to flow staining and supernatant harvest.
On the final day plates were centrifuged at 500×g for 4 minutes at room temperature. 125 μL of supernatants were transferred to a V bottom 96 well polystyrene plate and stored at −80° C. Plates were gently vortexed to disrupt the cell pellets before 125 μL 1×PBS was added to each well. Plates were centrifuged at 500×g for 4 minutes at room temperature and supernatants removed from the plates by aspirating. Plates were gently vortexed and 30 μL of live/dead stain (Invitrogen, L34975) in 1×dPBS was added and incubated for 15 minutes in the dark at 4° C. […] 100 μL of flow cytometry buffer was added and plates were centrifuged at 500×g for 4 minutes before supernatants were aspirated from the plates. Wells were resuspended in 200 μL flow cytometry buffer and plates stored at 4° C. before being run on the flow cytometer.
Data was analysed using FlowJo and the compensation matrix applied to all samples. The gates were set using unstained and unstimulated samples.
Assay [3] has as its target T2, MTHFD1 recombinant human enzyme (Homo sapiens, UniProt P11586).
T2 sequence (P11586 2-291 limits assumed): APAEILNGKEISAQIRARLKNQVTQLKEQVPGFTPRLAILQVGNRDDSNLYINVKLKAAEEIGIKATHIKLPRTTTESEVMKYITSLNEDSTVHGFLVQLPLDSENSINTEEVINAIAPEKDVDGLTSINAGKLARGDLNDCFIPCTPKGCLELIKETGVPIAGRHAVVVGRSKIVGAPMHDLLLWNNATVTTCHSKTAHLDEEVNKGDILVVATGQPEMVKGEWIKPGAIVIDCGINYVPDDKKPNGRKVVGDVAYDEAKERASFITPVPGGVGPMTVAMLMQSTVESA
As to the kind of experiment: MTHFD1 inhibition assay (NAD(P)H-Glo luminescence). The settings on record: MTHFD1 IC50, recombinant human enzyme 200 nM, NADP, band.

Regarding `COC[C@H]1CN(c2cc(Cl)c3c4c(c(=O)oc3c2C)CN(C(=O)c2cc(N(C)C)c(C(=O)NS(=O)(=O)N3CCCC3)cc2F)CC4)CCN1C` [Example 247, (R)-4-(10-chloro-8-(3-(methoxymethyl)-4-methylpiperazin-1-yl)-7-methyl-5-oxo-1,3,4,5-tetrahydro-2H-chromeno[3,4-c]pyridine-3-carbonyl)-2-(dimethylamino)-5-fluoro-N-(pyrrolidin-1-ylsulfonyl)benzamide], the IC50 in assay [1] lay in the range of 1 to 10 nM; in assay [2] it was 10 to 30 nM; in assay [3], 100 to 1000 nM.
Take `COC[C@H]1CN(c2cc(C)c3c4c(c(=O)oc3c2C)CN(C(=O)c2cc(OC)c(C(=O)NS(=O)(=O)N3C5CCC3CC5)cc2F)CC4)CCN1C` [Example 248, (R)-N-((7-azabicyclo[2.2.1]heptan-7-yl)sulfonyl)-5-fluoro-2-methoxy-4-(8-(3-(methoxymethyl)-4-methylpiperazin-1-yl)-7,10-dimethyl-5-oxo-1,3,4,5-tetrahydro-2H-chromeno[3,4-c]pyridine-3-carbonyl)benzamide]: the IC50 in assay [1] lay in the range of 1 to 10 nM; in assay [2], 30 to 100 nM; in assay [3] it was 100 to 1000 nM. The “MTHFD1/MTHFD2 IC50 ratio” value in assay [1] was “J (>30)”.
Consider `COC[C@H]1CN(c2cc(C)c3c4c(c(=O)oc3c2C)CN(C(=O)c2cc(OC)c(C(=O)NS(=O)(=O)N3CC5CC5C3)cc2F)CC4)CCN1C` (stereo partly drawn) [Example 249, N-((3-azabicyclo[3.1.0]hexan-3-yl)sulfonyl)-5-fluoro-2-methoxy-4-(8-((R)-3-(methoxymethyl)-4-methylpiperazin-1-yl)-7,10-dimethyl-5-oxo-1,3,4,5-tetrahydro-2H-chromeno[3,4-c]pyridine-3-carbonyl)benzamide], for which the IC50 in assay [1] was in the range of 1 to 10 nM; in assay [2] it was 30 to 100 nM; in assay [3] it was 100 to 1000 nM. Moreover, the “MTHFD1/MTHFD2 IC50 ratio” value in assay [1] is on record as “J (>30)”.
With `[2H]C([2H])([2H])Oc1cc(C(=O)N2CCc3c(c(=O)oc4c(C)c(N5CCN(C)[C@@H](COC)C5)cc(C)c34)C2)c(F)cc1C(=O)NS(=O)(=O)N1C2CCC1CC2` [Example 250, (R)-N-((7-azabicyclo[2.2.1]heptan-7-yl)sulfonyl)-5-fluoro-2-(methoxy-d3)-4-(8-(3-(methoxymethyl)-4-methylpiperazin-1-yl)-7,10-dimethyl-5-oxo-1,3,4,5-tetrahydro-2H-chromeno[3,4-c]pyridine-3-carbonyl)benzamide], the results for the IC50 in assay [1], in assay [2] and in assay [3] were 1 to 10 nM, 30 to 100 nM and 1000 to 5000 nM, respectively. Besides, in assay [1], the “MTHFD1/MTHFD2 IC50 ratio” value is on record as “J (>30)”.
As for `[2H]C([2H])([2H])Oc1cc(C(=O)N2CCc3c(c(=O)oc4c(C)c(N5CCN(C)[C@@H](COC)C5)cc(C)c34)C2)c(F)cc1C(=O)NS(=O)(=O)N1CC2CC2C1` (stereo partly drawn) [Example 251, N-((3-azabicyclo[3.1.0]hexan-3-yl)sulfonyl)-5-fluoro-2-(methoxy-d3)-4-(8-((R)-3-(methoxymethyl)-4-methylpiperazin-1-yl)-7,10-dimethyl-5-oxo-1,3,4,5-tetrahydro-2H-chromeno[3,4-c]pyridine-3-carbonyl)benzamide], the IC50 in assay [1] was in the range of 1 to 10 nM; in assay [2] it was 30 to 100 nM; in assay [3] it was 100 to 1000 nM. For the same molecule, the “MTHFD1/MTHFD2 IC50 ratio” value in assay [1] is “J (>30)”.
Take `COC[C@H]1CN(c2cc(C)c3c4c(c(=O)oc3c2C)CN(C(=O)c2cc(N(C)C)c(C(=O)NS(=O)(=O)N3CC5(CCC5)C3)cc2F)CC4)CCN1C` [Example 253, (R)-N-((2-azaspiro[3.3]heptan-2-yl)sulfonyl)-2-(dimethylamino)-5-fluoro-4-(8-(3-(methoxymethyl)-4-methylpiperazin-1-yl)-7,10-dimethyl-5-oxo-1,3,4,5-tetrahydro-2H-chromeno[3,4-c]pyridine-3-carbonyl)benzamide]: the IC50 in assay [1] was in the range of 1 to 10 nM; in assay [2], 10 to 30 nM; in assay [3] it was 100 to 1000 nM. Further, the “MTHFD1/MTHFD2 IC50 ratio” value in assay [1] is on record as “J (>30)”.
`COC[C@H]1CN(c2cc(C)c3c4c(c(=O)oc3c2C)CN(C(=O)c2cc(N(C)C)c(C(=O)NS(=O)(=O)N3CC[C@H](F)C3)cc2F)CC4)CCN1C` [Example 254, 2-(dimethylamino)-5-fluoro-N-(((S)-3-fluoropyrrolidin-1-yl)sulfonyl)-4-(8-((R)-3-(methoxymethyl)-4-methylpiperazin-1-yl)-7,10-dimethyl-5-oxo-1,3,4,5-tetrahydro-2H-chromeno[3,4-c]pyridine-3-carbonyl)benzamide]: the IC50 was in the range of 1 to 10 nM in assay [1], 10 to 30 nM in assay [2] and 100 to 1000 nM in assay [3]. Also, in assay [1], the “MTHFD1/MTHFD2 IC50 ratio” value is listed as “J (>30)”.
Take `COC[C@H]1CN(c2cc(C)c3c4c(c(=O)oc3c2C)CN(C(=O)c2cc(N(C)C)c(C(=O)NS(=O)(=O)N3C5CCC3CC5)cc2F)CC4)CCN1C` [Example 255, (R)-N-((7-azabicyclo[2.2.1]heptan-7-yl)sulfonyl)-2-(dimethylamino)-5-fluoro-4-(8-(3-(methoxymethyl)-4-methylpiperazin-1-yl)-7,10-dimethyl-5-oxo-1,3,4,5-tetrahydro-2H-chromeno[3,4-c]pyridine-3-carbonyl)benzamide]: the IC50 in assay [1] was in the range of 1 to 10 nM; in assay [2], 10 to 30 nM; in assay [3], 1000 to 5000 nM. In addition, the “MTHFD1/MTHFD2 IC50 ratio” value in assay [1] is recorded as “J (>30)”.
Take `COC[C@H]1CN(c2cc(C)c3c4c(c(=O)oc3c2C)CN(C(=O)c2cc(N(C)C)c(C(=O)NS(=O)(=O)N3C5CCC3COC5)cc2F)CC4)CCN1C` [Example 256, N-((3-oxa-8-azabicyclo[3.2.1]octan-8-yl)sulfonyl)-2-(dimethylamino)-5-fluoro-4-(8-((R)-3-(methoxymethyl)-4-methylpiperazin-1-yl)-7,10-dimethyl-5-oxo-1,3,4,5-tetrahydro-2H-chromeno[3,4-c]pyridine-3-carbonyl)benzamide]: the IC50 in assay [1] fell in the range of 1 to 10 nM; in assay [2] it was 10 to 30 nM; in assay [3], 1000 to 5000 nM. Moreover, the “MTHFD1/MTHFD2 IC50 ratio” value in assay [1] is “J (>30)”.
In the case of `COC[C@H]1CN(c2cc(C)c3c4c(c(=O)oc3c2C)CN(C(=O)c2cc(N(C)C)c(C(=O)NS(=O)(=O)N(C)C3CC3)cc2F)CC4)CCN1C` [Example 257, (R)-N-(N-cyclopropyl-N-methylsulfamoyl)-2-(dimethylamino)-5-fluoro-4-(8-(3-(methoxymethyl)-4-methylpiperazin-1-yl)-7,10-dimethyl-5-oxo-1,3,4,5-tetrahydro-2H-chromeno[3,4-c]pyridine-3-carbonyl)benzamide], the values for the IC50 in assay [1], in assay [2] and in assay [3] were 1 to 10 nM, 1 to 10 nM and 100 to 1000 nM, respectively. Further, the “MTHFD1/MTHFD2 IC50 ratio” value in assay [1] is on record as “J (>30)”.
With `CCOc1cc(C(=O)N2CCc3c(c(=O)oc4c(C)c(N5CCN(C)[C@@H](COC)C5)cc(Cl)c34)C2)c(F)cc1C(=O)NS(=O)(=O)N1CCCC1` [Example 259, (R)-4-(10-chloro-8-(3-(methoxymethyl)-4-methylpiperazin-1-yl)-7-methyl-5-oxo-1,3,4,5-tetrahydro-2H-chromeno[3,4-c]pyridine-3-carbonyl)-2-ethoxy-5-fluoro-N-(pyrrolidin-1-ylsulfonyl)benzamide], the results for the IC50 in assay [1], in assay [2] and in assay [3] were 1 to 10 nM, 30 to 100 nM and 100 to 1000 nM, respectively. Besides, the “MTHFD1/MTHFD2 IC50 ratio” value in assay [1] is reported as “J (>30)”.
